{"source": "patent US9693954B2", "about": "“Co-delivery of stimulatory and inhibitory factors to create temporally stable and spatially restricted zones” (President and Fellows of Harvard College, priority 2010, dated 2017)", "molecules": {"B1": {"name": "BMP4: bone morphogenetic protein 4, morphogen used to drive bone differentiation (protein, UniProt P12644 293-408, looked up)", "Bone morphogenetic protein 4": "SPKHHSQRARKKNKNCRRHSLYVDFSDVGWNDWIVAPPGYQAFYCHGDCPFPLADHLNSTNHAIVQTLVNSVNSSIPKACCVPTELSAISMLYLDEYDKVVLKNYQEMVVEGCGCR"}}, "key": {"[1]": {"system": "phospho-Smad2 in D1 (MSCs)", "test": "immunoblot / immunostaining for phospho-Smad2 (2/3) in D1 MSCs", "assay_type": "cell-based", "protocol": "(§1) Experiments were carried out with the following morphogens: TGF-β1 to drive dentin differentiation and BMP4 to drive bone differentiation. The scaffold devices were fabricated, loaded with morphogens (in this case, differentiation factors), and then seeded with stem cells, e.g., mesendymal stem cells, embryonic stem cells or induced pluripotent stem cells (iPS)). The loaded, seeded devices were cultured for 21 days with no additional factors present in the media. All factors came from within the scaffold from the point of seeding. Immunoblots were carried out to assess activation of the downstream Smad signaling pathways following treatment of D1s with these morphogens."}, "[2]": {"system": "TGF-β reporter line (MLEC p3TP Luc)", "test": "TGF-β reporter cell line luciferase activity", "assay_type": "cell-based", "protocol": "(§2) FIG. 22E is a schematic showing an experimental scheme to show the precise kinetics of growth factor exposure on luciferase activity in the reporter lines. Following seeding and serum starvation (reduces background), a specific inhibitor is added to create a uniform inhibitory field. Subsequently, for given amounts of time, the inhibitor is washed off, the growth factor (either TGF-β1 or BMP4) is added for specified time, and washed off followed by re-addition of the inhibitor. At 24 hours, cells are lysed and assayed for luciferase activity.\n(§3) The reporter cell lines were seeded in these 5 layered systems and imaged for luciferase activity after 24 hours to confirm development of spatially distinct morphogens fields."}, "angiogenesis": {"system": "angiogenesis", "settings": "from previous studies; cited from earlier work"}, "[3]": {"system": "dermal human vascular endothelial cells (HMVECs)", "test": "in vitro sprouting assay (cell-seeded dextran beads in fibrin gel)", "assay_type": "cell-based", "settings": "HMVEC-coated beads in fibrin gel, 4 days, 10 ng/mL HGF in all media", "protocol": "Briefly, dermal human vascular endothelial cells (HMVECs) were purchased from Lonza (CC-2543) and cultured to confluence at 37° C. and 5% CO2 in microvascular endothelial cell growth medium-2 (EGM-2MV) (Lonza) containing all supplements. Angiogenic activity of endothelial cells was assessed using a modification of a widely used in vitro sprouting assay (Nehls, V., and Drenckhahn, D. 1995 Microvasc Res 50, 311-322). Briefly, dextran beads microcarriers (Cytodex 3) with a dry weight of 50 mg were swollen in PBS and autoclaved. The microcarriers were washed in EGM-2MV medium and seeded with 3×10^6 HMVECs in a spinner flask. The microcarriers were stirred for 2 minutes out of 30 minutes for […] at 37° C. incubation. After 4 hours, the beads and cells mixture were continuously stirred and incubated for an additional 20 hours. The cell-coated beads were then seeded in fibrin gel in a 24-well-plate. The composition of the fibrin gel in each well was 0.682 mg fibrinogen (Sigma, T3879), 11.4 μg aprotinin (Sigma, A4529), 0.455 U thrombin (Sigma, T6884) in 393 μL of phosphate buffered saline (PBS) and 57 μL of EGM2-MV. Gels were incubated at 37° C. for 30 minutes and media of experimental conditions were placed on top of the gel. […] Media were changed every 24 hours and the cells were allowed to sprout from beads into surrounding gel over 4 days. […]"}, "[4]": {"system": "phospho-Smad1/5/8 in D1 (MSCs)", "test": "immunoblot for phospho-Smad1/5/8 in D1 MSCs", "assay_type": "cell-based", "protocol": "as §1"}, "[5]": {"system": "BMP4 reporter (C2C12 BRE Luc)", "test": "BMP4 reporter cell line luciferase activity", "assay_type": "cell-based", "protocol": "as §2, §3"}, "[6]": {"settings": "inhibitor wash-off / re-addition scheme, lysis at 24 hours"}}, "data": [{"molecule": "TGF-β1: transforming growth factor-β1, morphogen used to drive dentin differentiation", "values": [{"measurement": "phospho-Smad2 activation (immunoblot)", "setting": "[1]", "value": "dose-dependent activation"}, {"measurement": "phospho-Smad2/3 immunostaining", "setting": "[1]; following stimulation", "value": "nuclear localization of activated Smads"}, {"measurement": "luciferase activity with varying TGF-β1 concentration", "setting": "[2]", "value": "linear dose dependence"}, {"measurement": "exposure time sufficient for maximal induction of luciferase activity", "setting": "[2]; [6]", "value": "5 to 15", "unit": "min"}]}, {"molecule": "VEGF", "values": [{"measurement": "minimum effective VEGF concentration in vivo to induce angiogenesis", "setting": "angiogenesis", "value": "~5", "unit": "ng/mL"}, {"measurement": "angiogenic sprouting (number of sprouts per bead)", "setting": "[3]", "value": "induced angiogenic sprouting"}]}, {"molecule": "B1", "values": [{"measurement": "phospho-Smad1/5/8 activation (immunoblot)", "setting": "[4]", "value": "dose-dependent activation"}, {"measurement": "luciferase activity with varying BMP4 concentration", "setting": "[5]", "value": "linear dose dependence"}, {"measurement": "exposure time sufficient for maximal induction of luciferase activity", "setting": "[5]; [6]", "value": "5 to 15", "unit": "min"}]}]}
